{"source": "paper PMC7901654", "about": "“Bioisosteric Discovery of NPA101.3, a Second-Generation RET/VEGFR2 Inhibitor Optimized for Single-Agent Polypharmacology” (Journal of Medicinal Chemistry, 2020)", "format_in_all_cases": "cell-based", "key": {"hERG": {"biological_target": "T1, hERG (Homo sapiens, UniProt Q12809)", "T1 construct": "host or cells: HEK293, tetracycline-inducible hERG", "experiment": "hERG patch-clamp assay"}, "human RET-negative cells": {"test_system": "human RET-negative cells", "experiment": "Cell growth curves, human RET-negative cells taken together", "conditions": "read-out: IC50 dose, all human RET-negative cells", "procedure": "The IC50 dose for all human RET-negative cells was >100.0 nM, confirming compound selectivity (Figure S8 and Table S4).\nNthy-ory-3-1 (10000 per well), TPC-1 (10000 per well), MZ-CRC-1 (100000 per well), TT (200000 per well), Lc-2/ad (100000 per well), BCPAP (10000 per well), 8505-C (10000 per well), PC-9 (10000 per well), A549 (10000 per well), CALU-1 (10000 per well), NIH3T3 RET/C634Y (10000 per well), and NIH3T3 HRAS/G12V (10000 per well) were seeded in six-well tissue culture plates. Cells were kept in 2% (TPC-1), 5% (Nthy-ori-3-1), or 10% (BCPAP, 8505-C, CALU-1, A549, PC-9, TT, MZ-CRC-1, and Lc-2/ad) fetal calf serum or in 2% (NIH3T3 RET/C634Y and HRAS/G12V) calf serum. Ba/F3 cells (200000 per well in 2 mL) were seeded in six-well tissue culture plates and kept in 10% fetal calf serum. The day after plating, different concentrations of the drug or vehicle were added to the medium and changed every 2–3 days. Cells were counted every day (Ba/F3), every 2 days (fibroblasts), or every 2–3 days (human cell lines). To compare cell growth, we performed an unpaired Student’s t test using the Instat software program (Graphpad Software Inc.). […] IC50 doses were calculated through a curve fitting analysis from last day of growth curves using the PRISM software program (Graphpad Software Inc.)."}, "NIH3T3 RET/C634Y cells": {"test_system": "NIH3T3 RET/C634Y cells", "experiment": "Phosphorylation and signalling Western blot in NIH3T3 RET/C634Y cells", "conditions": "10.0 nM, 2 h", "procedure": "Protein lysates were prepared according to standard procedures. Briefly, cells were lysed in a buffer containing 50 mM N-2-hydroxyethylpiperazine-N′-2-ethanesulfonic acid (HEPES; pH 7.5), 1% (v/v) Triton X-100, 150 mM NaCl, 5 mM EGTA, 50 mM NaF, 20 mM sodium pyrophosphate, 1 mM sodium vanadate, 2 mM phenylmethanesulfonyl fluoride (PMSF), and 1 μg/mL aprotinin. Lysates were clarified by centrifugation at 10000g for 15 min. […] Immune complexes were detected with the enhanced chemiluminescence kit (Amersham Pharmacia Biotech, Little Chalfont, U.K.). Anti-phospho-SHC (#Y317), which recognizes SHC protein when phosphorylated on Y317, was from Upstate Biotechnology Inc. (Lake Placid, NY). Anti-SHC (H-108) was from Santa Cruz Biotechnology (Santa Cruz, CA). Anti-MAPK (9101) and anti-phospho-MAPK (9102), specific for p42/44MAPK (ERK1/2) phosphorylated on Thr202/Tyr204, antibodies were from Cell Signaling Technologies (Danvers, MA). Anti-phospho-VEGFR2/KDR (2478), specific for VEGFR2/KDR phosphorylated on Tyr1175, and anti-VEGFR2/KDR (2479) were from Cell Signaling Technologies. Anti-phospho-p70S6K (9234), specific for p70S6K phosphorylated on Thr389, and anti-p70S6K (2708) were from Cell Signaling Technologies. […]"}}}
{"smiles": "CC(C)(C)c1cc(NC(=O)Cc2ccc(-n3cnc4cc(-c5ccc(S(C)(=O)=O)cc5)ccc43)cc2)no1", "note": "[NPA101.3]", "values": [{"measurement": "hERG IC50 relative to RET IC50", "setting": "hERG; hERG 7.57 μM vs RET 1 nM", "result": "> 7000", "unit": "fold"}, {"measurement": "inhibition at 0.1 µM", "setting": "hERG; human, HEK293 cells expressing inducible hERG, 0.1 µM", "result": 0.41, "unit": "%"}, {"measurement": "inhibition at 1 µM", "setting": "hERG; human, HEK293 cells expressing inducible hERG, 1 µM", "result": 14.6, "unit": "%"}, {"measurement": "inhibition at 10 µM", "setting": "hERG; human, HEK293 cells expressing inducible hERG, 10 µM", "result": 55.9, "unit": "%"}, {"measurement": "IC50", "setting": "human RET-negative cells", "result": "> 100", "unit": "nM"}, {"measurement": "phosphorylation of MAPK", "setting": "NIH3T3 RET/C634Y cells", "result": "attenuated"}, {"measurement": "phosphorylation of RET and SHC", "setting": "NIH3T3 RET/C634Y cells", "result": "almost completely inhibited"}]}
